Data set [1] has as its system hPSC-CMs in human cardiac organoids (hCOs). Put plainly: Whole-mount immunostaining and image analysis of hCO (Ki-67, pH3, MLC2v, activated β-catenin, 8-OxoG, pATM, α-actinin, DNA). The class given is cell-based. As for the experimental part: hCOs were fixed for 60 min with 1% paraformaldehyde (Sigma) at room temperature and washed 3× with PBS, after which they were incubated with primary antibodies (Table 1) in Blocking Buffer, 5% FBS and 0.2% Triton-X-100 (Sigma) in PBS overnight at 4° C. Cells were then washed in Blocking Buffer 2× for 2 h and subsequently incubated with secondary antibodies (Table 1) and Hoescht (1:1000) overnight at 4° C. They were washed in Blocking Buffer 2× for 2 h and imaged in situ or mounted on microscope slides using Fluoromount-G (Southern Biotech). For screening hCO were imaged using a Leica DMi8 high content imaging microscope for in situ imaging. Custom batch processing files were written in Matlab R2013a (Mathworks) to remove the background, calculate the image intensity, and export the batch data to an Excel (Microsoft) spreadsheet. For more detailed images an Olympus IX81 confocal microscope or a Nikon Diskovery Spinning Disk confocal microscope for mounted imaging. For cell cycle analysis experiments 3 random fields of view were imaged and manually quantified for proliferation. These were added together to calculate the percentage of hPSC-CM proliferation in each hCO.

Data set [2] has as its system adult cardiac muscle. As to conditions: ref (23), read-out: calcium EC50; cited from earlier work.
Data set [3] has as its system human cardiac organoids (hCOs). Put plainly: Force analysis of hCO in Heart-Dyno (pole deflection, contraction parameters). Format: cell-based. Conditions: for EC50: read-out: calcium EC50 for force of contraction. As for the experimental part: CTRL medium: α-MEM GlutaMAX (ThermoFisher Scientific), 10% fetal bovine serum (FBS) (ThermoFisher Scientific), 200 μM L-ascorbic acid 2 phosphate sesquimagnesium salt hydrate (Sigma) and 1% Penicillin/Streptomycin (ThermoFisher Scientific). For each hCO, 5×10^4 cardiac cells in CTRL medium were mixed with collagen I to make a 3.5 μl final solution containing 2.6 mg/ml collagen I and 9% Matrigel. The bovine acid-solubilized collagen I (Devro) was first salt balanced and pH neutralized using 10×DMEM and 0.1 M NaOH, respectively, prior to mixing with Matrigel and cells. The mixture was prepared on ice and pipetted into the Heart-Dyno. The Heart-Dyno was then centrifuged at 100×g for 10 s to ensure the hCO form halfway up the posts. The mixture was then gelled at 37° C. for 30 min prior to the addition of CTRL medium to cover the tissues (150 μl/hCO). The Heart-Dyno design facilitates the self-formation of tissues around in-built PDMS exercise poles (designed to deform ˜0.07 μm/μN). The medium was changed every 2-3 days (150 μl/hCO). hCOs were cultured in CTRL medium for formation and then changed to serum-free media as indicated for experiments. For all screening experiments, after hCO formation, hCOs were cultured in serum-free conditions comprising DMEM without glucose, glutamine and phenol red (ThermoFisher Scientific) supplemented with 4% B27 (with or without insulin) (ThermoFisher Scientific), 1% GlutaMAX (ThermoFisher Scientific), 200 μM L-ascorbic acid 2 phosphate sesquimagnesium salt hydrate and 1% Penicillin/Streptomycin (ThermoFisher Scientific). […] A timeline of the finalized hCO fabrication, culture and maturation protocol can be found in FIG. 1m.
The pole deflection was used to approximate the force of contraction. A Leica DMi8 inverted high content Imager was used to capture a 10 s time-lapse of each hCO contracting in real time at 37° C. Custom batch processing files were written in Matlab R2013a (Mathworks) to convert the stacked TIFF files to AVI, track the pole movement (using vision.PointTracker), determine the contractile parameters, produce a force-time figure, and export the batch data to an Excel (Microsoft) spreadsheet.
Custom batch processing files were written in Matlab R2013a (Mathworks) to convert the stacked TIFF files to AVI, track the pole movement (using vision.PointTracker), determine the contractile parameters, produce a force-time figure, and export the batch data to an Excel (Microsoft) spreadsheet. The follow formulae were used to determine the contractile force at each time-point. Maximum deflection at the end of a rectangular cantilever fixed at one end with force applied at a specified distance:
Based on the parameters of our system: E=1500 kPa, b=0.5 mm, h=0.2 mm, L=0.7 mm, and x=0.35 mm (hCO half-way up the poles), k=14 μN/μm.

The subject of data set [4] is human cardiac organoids (hCOs). Put plainly: ELISAs for lactate dehydrogenase and cardiac troponin I (cell viability of hCO). As to conditions: addition of palmitate, serum-free culture of hCOs. Format: cell-based.
The test system of data set [5] is human cardiac organoids (hCOs). The data set can be described thus: hCO tissue viability (viable, intact and functional tissues). Conditions: prolonged presence within the maturation media. The class given is cell-based.

Where two headings read alike, the source gives them in different places.

`Cc1c[nH]c(-c2cnc(NCCNc3ccc(C#N)cn3)nc2-c2ccc(Cl)cc2Cl)n1` [CHIR99021, reference compound]: the “proliferating (Ki-67) hPSC-CMs (α-actinin)” value in data set [1] (hCOs cultured in MM, 24 h treatment) is reported as “blunted proliferative response”. In addition, the “proliferation (α-actinin and Ki-67 staining)” value in data set [1] (hCOs, 5 μm CHIR vs 0.05% DMSO) is “pro-proliferative effects”.
Usually EC50 stands for the concentration needed to bring the measured effect to its halfway point. As for `[Ca+2]` [calcium], the EC50 was 2600 to 6000 µM in data set [2], 300 µM in data set [3] (hCOs cultured in CTRL medium) and 1000 µM in data set [3] (hCOs cultured in MM).
Consider `COc1cc(N)c(Cl)cc1C(=O)NC1CCN(CCCOc2ccc(F)cc2)CC1OC` (centres unmarked) [cisapride, reference compound], for which, in data set [3] (hCO, pro-arrhythmogenic compound with hERG toxicity), the relaxation time result is listed as “prolong relaxation time”.
Turning to `CC(C)NCC(O)c1ccc(O)c(O)c1` (centres unmarked) [isoprenaline, reference compound], in data set [3] (hCOs cultured in MM, culture medium 1.8 mM Ca2+ (no increase in CTRL medium)), the force of contraction entry is “increase in the force of contraction”. Moreover, in data set [3] (hCOs in both CTRL medium and MM), the rate of contraction entry was “increased the rate of contraction”. The 50% contraction time entry in data set [3] (paced 1 Hz at the calcium EC50, both CTRL medium and MM hCO) is reported as “decreased 50% contraction time”.
As to `CCCCCCCCCCCCCCCC(=O)O` [palmitate, palmitic acid], in data set [4], the lactate dehydrogenase levels entry is “unaffected”. Further, the MLC2v expression result in data set [1] (addition of palmitate, serum-free with insulin, relative to 5.5 mM glucose without palmitate) is “increased”; in data set [1] (palmitate, absence of insulin) it was “trend to increased MLC2v expression”. In addition, the “hCO force of contraction” value in data set [3] (100 μM palmitate, absence of insulin, 0.5, 1 and 5.5 mM glucose) is given as “significantly higher forces”; in data set [3] (addition of 10 μM and 100 μM palmitate, serum-free conditions with insulin, vs 0 μM palmitate), “trend to increase”.
For “TGF-β1: TGFβ-1 growth factor (Peprotech)”, in data set [5], the cell death entry was “significant cell death”. The “hCO function (force of contraction)” value in data set [3] (0, 1, 3 and 10 ng/ml, day 2-5, 2-7 and 2-9, H9-derived hCOs) is given as “detrimental to hCO function”. Further, the contractile function entry in data set [3] (prolonged presence within the maturation media) is reported as “compromised the contractile function”.
For “insulin: insulin, commonly used in serum-free medium supplements (B27 with insulin)”, the “activated β-catenin” value in data set [1] (48 h, regardless of glucose or palmitate) is given as “highly dependent on insulin”. Further, the “re-activation of hPSC-CM proliferation (Ki-67)” value in data set [1] (addition of insulin after 11 days in MM) is reported as “not sufficient to re-activate”. In addition, the “hPSC-CM proliferation (Ki-67 expression)” value in data set [1] (serum-free conditions, 1 mM glucose and 10 μM palmitate) is given as “inducing hPSC-CM proliferation”.

These data come from patent US11920158B2, “Cardiomyocyte maturation” (The Council of the Queensland Institute of Medical Research, priority 2016, dated 2024).
